Laboratory results from patent publication EP0074599A1, “5,6-cis-Carbapenem derivatives, their production and use” (Takeda Chemical Industries, Ltd., priority 1981, dated 1983).

Legend:
Experiment in all cases: Minimal Inhibitory Concentration (MIC), agar dilution method
Assay type in all cases: cell-based
Design in all cases: unit not given here
[1] = test system: A. calcoaceticus IFO 13006; details: Test Microorganism (16) A. calcoaceticus IFO 13006; Trypticase soy agar, 37°C for 18 hours
Protocol: (§1) Minimal Inhibitory Concentration (MIC)
(§2) The Minimal Inhibitory Concentrations of the tested compounds were determined according to the agar dilution method. Namely, 1.0 ml each of aqueous solution of the tested compounds diluted by serial dilutions was poured into test petri dishes, subsequently 9.0 ml each of Trypticase soy agar was poured into the dishes and mixed. On each of the mixed agar plates, one loopful of bacterial suspension (about 10^8 CFU/ml) of test microorganism was streaked.
(§3) After the incubation at 37°C for 18 hours, the lowest concentration of the tested compounds in the medium which caused apparently complete inhibition of growth of the test microorganism was taken to be minimal inhibitory concentration.
(§4) • (1) S. aureus FDA 209P • (2) S. aureus 308 A-1 • (3) S. aureus 1840 • (4) E. coli NIHJ JC-2 • (5) E. coli 0-111 • (6) E. coli T-7 • (7) C. freundii IFO 12681 • (8) K. pneumoniae DT • (9) E. cloacae IFO 12937 • (10) S. marcescens IFO 12648 • (11) P. vulgaris IFO 3988 • (12) P.-mirabilis IFO 3849 • (13) P. morganii IFO 3168 • (14) P. aeruginosa IFO 3455 • (15) P. aeruginosa U 31 • (16) A. calcoaceticus IFO 13006

E. cloacae IFO 12937 = details: Test Microorganism (9) E. cloacae IFO 12937; Trypticase soy agar, 37°C for 18 hours
Protocol: as §1, §2, §3, §4

S. aureus 1840 = details: Test Microorganism (3) S. aureus 1840; Trypticase soy agar, 37°C for 18 hours
Protocol: as §1, §2, §3, §4

E. coli NIHJ JC-2 = details: Test Microorganism (4) E. coli NIHJ JC-2; Trypticase soy agar, 37°C for 18 hours
Protocol: as §1, §2, §3, §4

E. coli T-7 = details: Test Microorganism (6) E. coli T-7; Trypticase soy agar, 37°C for 18 hours
Protocol: as §1, §2, §3, §4

P. vulgaris IFO 3988 = details: Test Microorganism (11) P. vulgaris IFO 3988; Trypticase soy agar, 37°C for 18 hours
Protocol: as §1, §2, §3, §4

S. marcescens IFO 12648 = details: Test Microorganism (10) S. marcescens IFO 12648; Trypticase soy agar, 37°C for 18 hours
Protocol: as §1, §2, §3, §4

C. freundii IFO 12681 = details: Test Microorganism (7) C. freundii IFO 12681; Trypticase soy agar, 37°C for 18 hours
Protocol: as §1, §2, §3, §4

P.-mirabilis IFO 3849 = details: Test Microorganism (12) P.-mirabilis IFO 3849; Trypticase soy agar, 37°C for 18 hours
Protocol: as §1, §2, §3, §4

E. coli 0-111 = details: Test Microorganism (5) E. coli 0-111; Trypticase soy agar, 37°C for 18 hours
Protocol: as §1, §2, §3, §4

P. morganii IFO 3168 = details: Test Microorganism (13) P. morganii IFO 3168; Trypticase soy agar, 37°C for 18 hours
Protocol: as §1, §2, §3, §4

P. aeruginosa U 31 = details: Test Microorganism (15) P. aeruginosa U 31; Trypticase soy agar, 37°C for 18 hours
Protocol: as §1, §2, §3, §4

S. aureus FDA 209P = details: Test Microorganism (1) S. aureus FDA 209P; Trypticase soy agar, 37°C for 18 hours
Protocol: as §1, §2, §3, §4

P. aeruginosa IFO 3455 = details: Test Microorganism (14) P. aeruginosa IFO 3455; Trypticase soy agar, 37°C for 18 hours
Protocol: as §1, §2, §3, §4

S. aureus 308 A-1 = details: Test Microorganism (2) S. aureus 308 A-1; Trypticase soy agar, 37°C for 18 hours
Protocol: as §1, §2, §3, §4

K. pneumoniae DT = details: Test Microorganism (8) K. pneumoniae DT; Trypticase soy agar, 37°C for 18 hours
Protocol: as §1, §2, §3, §4

Row | Structure (SMILES) | Minimal Inhibitory Concentration (MIC) [1] | Minimal Inhibitory Concentration (MIC) (E. cloacae IFO 12937) | Minimal Inhibitory Concentration (MIC) (S. aureus 1840) | Minimal Inhibitory Concentration (MIC) (E. coli NIHJ JC-2) | Minimal Inhibitory Concentration (MIC) (E. coli T-7) | Minimal Inhibitory Concentration (MIC) (P. vulgaris IFO 3988) | Minimal Inhibitory Concentration (MIC) (S. marcescens IFO 12648) | Minimal Inhibitory Concentration (MIC) (C. freundii IFO 12681) | Minimal Inhibitory Concentration (MIC) (P.-mirabilis IFO 3849) | Minimal Inhibitory Concentration (MIC) (E. coli 0-111) | Minimal Inhibitory Concentration (MIC) (P. morganii IFO 3168) | Minimal Inhibitory Concentration (MIC) (P. aeruginosa U 31) | Minimal Inhibitory Concentration (MIC) (S. aureus FDA 209P) | Minimal Inhibitory Concentration (MIC) (P. aeruginosa IFO 3455) | Minimal Inhibitory Concentration (MIC) (S. aureus 308 A-1) | Minimal Inhibitory Concentration (MIC) (K. pneumoniae DT)
1 | CC(C)(O)[C@@H]1C(=O)N2C(C(=O)O)=C(SCCN)C[C@H]12 [Example 2] | 3.13 | 12.5 | 1.56 | 1.56 | 1.56 | 50 | 12.5 | 3.13 | 50 | 0.39 | 50 | 25 | 0.39 | 6.25 | 0.78 | 12.5
2 | CC(C)(O)[C@@H]1C(=O)N2C(C(=O)O)=C(Sc3cccnn3)C[C@H]12 [Example 20, Sodium 5,6-cis-3-(3-pyridazinylthio)-6-(l-hydroxy-l-methylethyl)-7-oxo-1-azabicyclo[3.2.0]hept-2-ene-2-carboxylate] | 12.5 | 1.56 | 0.78 | 0.78 | 3.13 | 3.13 | 1.56 | 0.78 | 3.13 | 0.2 | 3.13 | >100 | 0.39 | 50 | 0.39 | 0.78
3 | CN(C)CCSC1=C(C(=O)O)N2C(=O)[C@@H](C(C)(C)O)[C@H]2C1 [Example 26, 5,6-cis-3-[2-(N,N-Dimethylaminoethyl)thio]-6-(1-hydroxy-1-methylethyl)-7-oxo-1-azabicyclo[3.2.0]hept-2-ene-2-carboxylic acid] | 12.5 | 6.25 | 0.78 | 0.78 | 0.78 | 50 | 6.25 | 3.13 | 50 | 0.39 | 50 | 50 | 0.39 | 25 | 0.39 | 25
4 | CC(C)(O)[C@@H]1C(=O)N2C(C(=O)O)=C(SCCCN)C[C@H]12 [Example 33, 5,6-cis-3-(3-Aminopropylthio)-6-(l-hydroxy-l-methylethyl)-7-oxo-l-azabicyclo[3.2.0]hept-2-ene-2-carboxylic acid] | 3.13 | 6.25 | 0.78 | 0.39 | 0.78 | 50 | 6.25 | 3.13 | 50 | 0.39 | 50 | 50 | 0.78 | 12.5 | 0.78 | 6.25
5 | CC(C)(O)[C@@H]1C(=O)N2C(C(=O)O)=C(SCCNC=N)C[C@H]12 [Example 46, 5,6-cis-3-(2-formimidoylaminoethylthio)-6-(1-hydroxy-1-methylethyl)-7-oxo-l-azabicyclo[3.2.0]hept-2-ene-2-carboxylic acid] | 6.25 | 6.25 | 0.78 | 0.39 | 0.78 | 25 | 3.13 | 1.56 | 25 | 0.39 | 25 | 6.25 | 0.39 | 3.13 | 0.78 | 6.25
6 | CC(C)(O)[C@@H]1C(=O)N2C(C(=O)O)=C(SCCCNC=N)C[C@H]12 [Example 47, 5,6-cis-3-(3-formimidoylaminopropylthio)-6-(1-hydroxy-1-methylethyl)-7-oxo-1-azabicyclo[3.2.0]hept-2-ene-2-carboxylic - acid] | 6.25 | 6.25 | 0.78 | 0.39 | 0.78 | 25 | 3.13 | 1.56 | 25 | 0.39 | 25 | 12.5 | 0.39 | 3.13 | 0.39 | 6.25
7 | CC(C)(O)[C@@H]1C(=O)N2C(C(=O)O)=C(SCCN3CCCC3)C[C@H]12 [Example 49] | 12.5 | 12.5 | 0.78 | 0.78 | 0.78 | 100 | 6.25 | 3.13 | 50 | 0.39 | 50 | 50 | 0.2 | 12.5 | 0.39 | 6.25
8 | CC(C)(O)[C@@H]1C(=O)N2C(C(=O)O)=C(SCCN3CCCCC3)C[C@H]12 [Example 51, 5,6-cis-3-(2-Piperidinoethylthio)-6-(1-hydroxy-1-methylethyl)-7-oxo-1-azabicyclo[3.2.0]hept-2-ene-carboxylic acid] | 25 | 6.25 | 0.78 | 0.78 | 0.78 | 25 | 6.25 | 3.13 | 25 | 0.39 | 25 | >100 | 0.2 | 50 | 0.39 | 6.25
